Source: US20020137929A1, “1 - (3-heterocyclylphenyl) isothiourea, -isourea, -guanidine and -amidine herbicidal agents” (Intellectual Property Department, BASF Aktiengesellschaft, priority 1998, published 2002)

How the values were obtained:
ABUTH (Velvetleaf) = experiment: Preemergence herbicidal evaluation; assay type: in vivo, Abutilon theophrasti; settings: rated 4-5 weeks after treatment, rating scale 0-9
Outline: (§1)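 In this greenhouse assay, monocot and dicot seeds are planted in soil and treated prior to emergence with an aqueous acetone spray (about 0.0156-0.500 kg/ha). Plants are assessed visually against control on a 0-9 scale after 4-5 weeks.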

[1] = test system: TRZAWR (Wheat, Winter, cv Riband); experiment: Postemergence herbicidal evaluation; assay type: in vivo, Triticum aestivum; settings: postemergence
Outline: (§2)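 Herbicidal effect was judged by eye on a 0–9 scale covering stand, vigor, deformity, size and chlorosis, compared with controls, four to five weeks after seedlings about two weeks old were sprayed (40 psi, ~0.0156–0.500 kg/ha).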

[2] = test system: IPOHE (Morningglory, Ivyleaf); experiment: Postemergence herbicidal evaluation; assay type: in vivo, Ipomoea hederacea; settings: postemergence
Outline: as §2

[3] = test system: SAGPY (Arrowhead (Pygmaea)); experiment: Preemergence weed control under flooded paddy conditions; assay type: in vivo, Sagittaria pygmaea; settings: rated 3-4 weeks after treatment
Outline: (§3)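 Values are visual 0-9 scores against a control for a preemergence application into paddy flood water at about 0.0313 to 0.500 kg/ha. Greenhouse duration was three to four weeks.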

CASOB (Sicklepod) [4] = experiment: Preemergence herbicidal evaluation; assay type: in vivo, Cassia obtusifolia; settings: rated 4-5 weeks after treatment, rating scale 0-9
Outline: as §1

AMBEL (Ragweed, Common) [5] = experiment: Preemergence herbicidal evaluation; assay type: in vivo, Ambrosia artemisifolia; settings: rated 4-5 weeks after treatment, rating scale 0-9
Outline: as §1

AMBEL (Ragweed, Common) [6] = experiment: Postemergence herbicidal evaluation; assay type: in vivo, Ambrosia artemisifolia; settings: postemergence
Outline: as §2

[7] = test system: GLXMAW (Soybean, Williams); experiment: Postemergence herbicidal evaluation; assay type: in vivo, Glycine max, (L.) Merr. cv Williams; settings: postemergence
Outline: as §2

[8] = test system: IPOHE (Morningglory, Ivyleaf); experiment: Preemergence herbicidal evaluation; assay type: in vivo, Ipomoea hederacea; settings: rated 4-5 weeks after treatment, rating scale 0-9
Outline: as §1

ECHCG (Barnyardgrass) = experiment: Postemergence herbicidal evaluation; assay type: in vivo, Echinochloa crus-galli; settings: postemergence
Outline: as §2

[9] = test system: CHEAL (Lambsquarters, Common); experiment: Postemergence herbicidal evaluation; assay type: in vivo, Chenopodium album; settings: postemergence
Outline: as §2

MOOVA (Monochoria) = experiment: Preemergence weed control under flooded paddy conditions; assay type: in vivo, Monochoria vaginalis; settings: rated 3-4 weeks after treatment
Outline: as §3

ORYSAT (Rice, Tebonnet) = experiment: Preemergence herbicidal evaluation; assay type: in vivo, Oryza sativa, (L.) Tebonnet; settings: rated 4-5 weeks after treatment, rating scale 0-9
Outline: as §1

[10] = test system: CHEAL (Lambsquarters, Common); experiment: Preemergence herbicidal evaluation; assay type: in vivo, Chenopodium album; settings: rated 4-5 weeks after treatment, rating scale 0-9
Outline: as §1

[11] = test system: GLXMAW (Soybean, Williams); experiment: Preemergence herbicidal evaluation; assay type: in vivo, Glycine max, (L.) Merr. cv Williams; settings: rated 4-5 weeks after treatment, rating scale 0-9
Outline: as §1

CASOB (Sicklepod) [12] = experiment: Postemergence herbicidal evaluation; assay type: in vivo, Cassia obtusifolia; settings: postemergence
Outline: as §2

Cn1c(C(F)(F)F)cc(=O)n(-c2cc(N=C3SCC(=O)N3Cc3ccc(Br)cc3)c(Cl)cc2F)c1=O [Compound 148, 3-{5-{[3-(p-Bromobenzyl)-4-oxo-2-thiazolidinyl-idene]amino}-4-chloro-2-fluorophenyl}-1-methyl-6-(trifluoromethyl)-2,4(1H,3H)-pyrimidinedione]
Preemergence herbicidal rating ABUTH (ABUTH (Velvetleaf); rate 0.0313 kg/ha): 0.0 | Preemergence herbicidal rating ABUTH (ABUTH (Velvetleaf); rate 0.0625 kg/ha): 1.0 | Preemergence herbicidal rating ABUTH (ABUTH (Velvetleaf); rate 0.1250 kg/ha): 4.0 | Preemergence herbicidal rating ABUTH (ABUTH (Velvetleaf); rate 0.2500 kg/ha): 4.0 | herbicidal rating TRZAWR ([1]; rate 0.0156 kg/ha): 2.5 | herbicidal rating TRZAWR ([1]; rate 0.0313 kg/ha): 3.0 | herbicidal rating TRZAWR ([1]; rate 0.0625 kg/ha): 4.0 | herbicidal rating IPOHE ([2]; rate 0.0156 kg/ha): 9.0 | herbicidal rating IPOHE ([2]; rate 0.0313 kg/ha): 9.0 | herbicidal rating IPOHE ([2]; rate 0.0625 kg/ha): 9.0 | herbicidal effect rating, SAGPY ([3]; 0.0313 kg/ha): 0.0 | herbicidal effect rating, SAGPY ([3]; 0.0625 kg/ha): 3.0 | herbicidal effect rating, SAGPY ([3]; 0.1250 kg/ha): 4.0 | herbicidal effect rating, SAGPY ([3]; 0.2500 kg/ha): 4.0 | Preemergence herbicidal rating CASOB (CASOB (Sicklepod) [4]; rate 0.0313 kg/ha): 0.0 | Preemergence herbicidal rating CASOB (CASOB (Sicklepod) [4]; rate 0.0625 kg/ha): 0.0 | Preemergence herbicidal rating CASOB (CASOB (Sicklepod) [4]; rate 0.1250 kg/ha): 0.0 | Preemergence herbicidal rating CASOB (CASOB (Sicklepod) [4]; rate 0.2500 kg/ha): 0.0 | Preemergence herbicidal rating AMBEL (AMBEL (Ragweed, Common) [5]; rate 0.0313 kg/ha): 0.0 | Preemergence herbicidal rating AMBEL (AMBEL (Ragweed, Common) [5]; rate 0.0625 kg/ha): 0.0 | Preemergence herbicidal rating AMBEL (AMBEL (Ragweed, Common) [5]; rate 0.1250 kg/ha): 0.0 | Preemergence herbicidal rating AMBEL (AMBEL (Ragweed, Common) [5]; rate 0.2500 kg/ha): 4.0 | herbicidal rating AMBEL (AMBEL (Ragweed, Common) [6]; rate 0.0156 kg/ha): 9.0 | herbicidal rating AMBEL (AMBEL (Ragweed, Common) [6]; rate 0.0313 kg/ha): 7.0 | herbicidal rating AMBEL (AMBEL (Ragweed, Common) [6]; rate 0.0625 kg/ha): 9.0 | herbicidal rating GLXMAW ([7]; rate 0.0156 kg/ha): 4.5 | herbicidal rating GLXMAW ([7]; rate 0.0313 kg/ha): 5.0 | herbicidal rating GLXMAW ([7]; rate 0.0625 kg/ha): 6.5 | Preemergence herbicidal rating IPOHE ([8]; rate 0.0313 kg/ha): 0.0 | Preemergence herbicidal rating IPOHE ([8]; rate 0.0625 kg/ha): 0.0 | Preemergence herbicidal rating IPOHE ([8]; rate 0.1250 kg/ha): 0.0 | Preemergence herbicidal rating IPOHE ([8]; rate 0.2500 kg/ha): 0.0 | herbicidal rating ECHCG (ECHCG (Barnyardgrass); rate 0.0156 kg/ha): 2.0 | herbicidal rating ECHCG (ECHCG (Barnyardgrass); rate 0.0313 kg/ha): 3.0 | herbicidal rating ECHCG (ECHCG (Barnyardgrass); rate 0.0625 kg/ha): 3.0 | herbicidal rating CHEAL ([9]; rate 0.0156 kg/ha): 4.0 | herbicidal rating CHEAL ([9]; rate 0.0313 kg/ha): 7.0 | herbicidal rating CHEAL ([9]; rate 0.0625 kg/ha): 7.0 | herbicidal effect rating, MOOVA (MOOVA (Monochoria); 0.0313 kg/ha): 7.0 | herbicidal effect rating, MOOVA (MOOVA (Monochoria); 0.0625 kg/ha): 7.0 | herbicidal effect rating, MOOVA (MOOVA (Monochoria); 0.1250 kg/ha): 9.0 | herbicidal effect rating, MOOVA (MOOVA (Monochoria); 0.2500 kg/ha): 9.0 | Preemergence herbicidal rating ORYSAT (ORYSAT (Rice, Tebonnet); rate 0.0313 kg/ha): 0.0 | Preemergence herbicidal rating ORYSAT (ORYSAT (Rice, Tebonnet); rate 0.0625 kg/ha): 0.0 | Preemergence herbicidal rating ORYSAT (ORYSAT (Rice, Tebonnet); rate 0.1250 kg/ha): 0.0 | Preemergence herbicidal rating ORYSAT (ORYSAT (Rice, Tebonnet); rate 0.2500 kg/ha): 0.0 | Preemergence herbicidal rating CHEAL ([10]; rate 0.0313 kg/ha): 6.0 | Preemergence herbicidal rating CHEAL ([10]; rate 0.0625 kg/ha): 9.0 | Preemergence herbicidal rating CHEAL ([10]; rate 0.1250 kg/ha): 9.0 | Preemergence herbicidal rating CHEAL ([10]; rate 0.2500 kg/ha): 9.0 | Preemergence herbicidal rating GLXMAW ([11]; rate 0.0313 kg/ha): 0.0 | Preemergence herbicidal rating GLXMAW ([11]; rate 0.0625 kg/ha): 0.0 | Preemergence herbicidal rating GLXMAW ([11]; rate 0.1250 kg/ha): 0.0 | Preemergence herbicidal rating GLXMAW ([11]; rate 0.2500 kg/ha): 0.0 | herbicidal rating CASOB (CASOB (Sicklepod) [12]; rate 0.0156 kg/ha): 3.0 | herbicidal rating CASOB (CASOB (Sicklepod) [12]; rate 0.0313 kg/ha): 3.0 | herbicidal rating CASOB (CASOB (Sicklepod) [12]; rate 0.0625 kg/ha): 3.0

Cn1c(C(F)(F)F)cc(=O)n(-c2cc(N=C3SCC(=O)N3C3CC3)c(Cl)cc2F)c1=O [Compound 152, 3-{4-Chloro-5-[(3-cyclopropyl-4-oxo-2-thiazolidinylidene)amino]-2-fluorophenyl}-1-methyl-6-(trifluoromethyl)-2,4(1H,3H)-pyrimidinedione]
Preemergence herbicidal rating ABUTH (ABUTH (Velvetleaf); rate 0.0313 kg/ha): 0.0 | Preemergence herbicidal rating ABUTH (ABUTH (Velvetleaf); rate 0.0625 kg/ha): 0.0 | Preemergence herbicidal rating ABUTH (ABUTH (Velvetleaf); rate 0.1250 kg/ha): 9.0 | Preemergence herbicidal rating ABUTH (ABUTH (Velvetleaf); rate 0.2500 kg/ha): 9.0 | herbicidal rating TRZAWR ([1]; rate 0.0156 kg/ha): 3.0 | herbicidal rating TRZAWR ([1]; rate 0.0313 kg/ha): 3.5 | herbicidal rating TRZAWR ([1]; rate 0.0625 kg/ha): 4.0 | herbicidal rating IPOHE ([2]; rate 0.0156 kg/ha): 7.0 | herbicidal rating IPOHE ([2]; rate 0.0313 kg/ha): 9.0 | herbicidal rating IPOHE ([2]; rate 0.0625 kg/ha): 9.0 | herbicidal effect rating, SAGPY ([3]; 0.0625 kg/ha): 0.0 | herbicidal effect rating, SAGPY ([3]; 0.1250 kg/ha): 0.0 | herbicidal effect rating, SAGPY ([3]; 0.2500 kg/ha): 0.0 | Preemergence herbicidal rating CASOB (CASOB (Sicklepod) [4]; rate 0.0313 kg/ha): 0.0 | Preemergence herbicidal rating CASOB (CASOB (Sicklepod) [4]; rate 0.0625 kg/ha): 1.0 | Preemergence herbicidal rating CASOB (CASOB (Sicklepod) [4]; rate 0.1250 kg/ha): 0.0 | Preemergence herbicidal rating CASOB (CASOB (Sicklepod) [4]; rate 0.2500 kg/ha): 3.0 | Preemergence herbicidal rating AMBEL (AMBEL (Ragweed, Common) [5]; rate 0.0313 kg/ha): 0.0 | Preemergence herbicidal rating AMBEL (AMBEL (Ragweed, Common) [5]; rate 0.0625 kg/ha): 0.0 | Preemergence herbicidal rating AMBEL (AMBEL (Ragweed, Common) [5]; rate 0.1250 kg/ha): 2.0 | Preemergence herbicidal rating AMBEL (AMBEL (Ragweed, Common) [5]; rate 0.2500 kg/ha): 6.0 | herbicidal rating AMBEL (AMBEL (Ragweed, Common) [6]; rate 0.0156 kg/ha): 2.0 | herbicidal rating AMBEL (AMBEL (Ragweed, Common) [6]; rate 0.0313 kg/ha): 4.0 | herbicidal rating AMBEL (AMBEL (Ragweed, Common) [6]; rate 0.0625 kg/ha): 9.0 | herbicidal rating GLXMAW ([7]; rate 0.0156 kg/ha): 4.0 | herbicidal rating GLXMAW ([7]; rate 0.0313 kg/ha): 4.5 | herbicidal rating GLXMAW ([7]; rate 0.0625 kg/ha): 6.0 | Preemergence herbicidal rating IPOHE ([8]; rate 0.0313 kg/ha): 0.0 | Preemergence herbicidal rating IPOHE ([8]; rate 0.0625 kg/ha): 1.0 | Preemergence herbicidal rating IPOHE ([8]; rate 0.1250 kg/ha): 4.0 | Preemergence herbicidal rating IPOHE ([8]; rate 0.2500 kg/ha): 7.0 | herbicidal rating ECHCG (ECHCG (Barnyardgrass); rate 0.0156 kg/ha): 1.0 | herbicidal rating ECHCG (ECHCG (Barnyardgrass); rate 0.0313 kg/ha): 2.0 | herbicidal rating ECHCG (ECHCG (Barnyardgrass); rate 0.0625 kg/ha): 2.0 | herbicidal rating CHEAL ([9]; rate 0.0156 kg/ha): 0.0 | herbicidal rating CHEAL ([9]; rate 0.0313 kg/ha): 4.0 | herbicidal rating CHEAL ([9]; rate 0.0625 kg/ha): 9.0 | herbicidal effect rating, MOOVA (MOOVA (Monochoria); 0.0625 kg/ha): 3.0 | herbicidal effect rating, MOOVA (MOOVA (Monochoria); 0.1250 kg/ha): 3.0 | herbicidal effect rating, MOOVA (MOOVA (Monochoria); 0.2500 kg/ha): 3.0 | Preemergence herbicidal rating ORYSAT (ORYSAT (Rice, Tebonnet); rate 0.0313 kg/ha): 0.0 | Preemergence herbicidal rating ORYSAT (ORYSAT (Rice, Tebonnet); rate 0.0625 kg/ha): 1.0 | Preemergence herbicidal rating ORYSAT (ORYSAT (Rice, Tebonnet); rate 0.1250 kg/ha): 1.0 | Preemergence herbicidal rating ORYSAT (ORYSAT (Rice, Tebonnet); rate 0.2500 kg/ha): 1.0 | Preemergence herbicidal rating CHEAL ([10]; rate 0.0313 kg/ha): 2.0 | Preemergence herbicidal rating CHEAL ([10]; rate 0.0625 kg/ha): 9.0 | Preemergence herbicidal rating CHEAL ([10]; rate 0.1250 kg/ha): 9.0 | Preemergence herbicidal rating CHEAL ([10]; rate 0.2500 kg/ha): 9.0 | Preemergence herbicidal rating GLXMAW ([11]; rate 0.0313 kg/ha): 0.0 | Preemergence herbicidal rating GLXMAW ([11]; rate 0.0625 kg/ha): 2.0 | Preemergence herbicidal rating GLXMAW ([11]; rate 0.1250 kg/ha): 2.0 | Preemergence herbicidal rating GLXMAW ([11]; rate 0.2500 kg/ha): 2.0 | herbicidal rating CASOB (CASOB (Sicklepod) [12]; rate 0.0156 kg/ha): 0.0 | herbicidal rating CASOB (CASOB (Sicklepod) [12]; rate 0.0313 kg/ha): 0.0 | herbicidal rating CASOB (CASOB (Sicklepod) [12]; rate 0.0625 kg/ha): 3.0
